“And” between values parts separate entries of the source, which are not always exact repeats. Equal entries are not always repeated. Where two headings read alike, the source gives them in different places.
Legend:
[1] = tested on: Aurantiochytrium acetophilum HS399
Experimental: In one implementation, a 250 mL Erlenmeyer flask can be used to cultivate A. acetophilum HS399.
In one implementation, a 250 mL Erlenmeyer flask can be used to cultivate A. acetophilum HS399. […] Cell dry weights may be analyzed using a filtration method. Ammonia can be measured using a Cedex bio-analyzer (Roche). […] The fatty acid profile of the biomass can be analyzed using gas chromatography.

[2] = tested on: Aurantiochytrium acetophilum HS399; assay: Cyanocobalamin and propionate deposition, flask (Example 10); format: cell-based; conditions: for Final Propionate: initial 3 g/L; for Cell dry weight: propionate 3 g/L
[3] = tested on: Aurantiochytrium acetophilum HS399; format: cell-based
Experimental: In this implementation, initially (24 h incubation), the culture pH may not be controlled, and the pH of the respective treatments can drift from 7.5 to 8. After 24 h incubation, the desired pH set point of each treatment can be set using the respective organic acids. […] The cultures are aerated at 1.4 vvm and maintained at 27° C. under axenic conditions. […] This medium also contains a trace element solution (5 ml/L) and a vitamin solution (1 ml/L). The trace element solution can contain (g/L): […] […] Residual glucose is analyzed from culture supernatant (5000 g; 5 min) using a colorimetric method based on glucose […] activity. Residual acetate and propionate are analyzed by HPLC using external standard.

[4] = tested on: Aurantiochytrium acetophilum HS399; assay: Propionic acid toxicity lethal threshold (Example 8); format: cell-based; conditions: for lethal threshold, Propionate Treatment (initial propionate): initial propionate approach, chronic, metric CDW, pH 6.4
[5] = tested on: Aurantiochytrium acetophilum HS399; assay: Propionate concentration and OCFA titers, flask (Example 13); format: cell-based; conditions: 96 h
From the text: The trace element solution contains (g/L): […] The vitamin solution contains (mg/L): thiamine (100) and biotin (0.5). […] The washed biomass is freeze dried.

[6] = tested on: Yarrowia lipolytica ATCC18944; format: cell-based; conditions: for Total Fatty Acids / Total Lipids: 168 h
Experimental: Culture conditions. In one implementation, Yarrowia lipolytica ATCC18944 can be cultivated in triplicates (n=3) in a medium containing (g/L): glycerol (80), monosodium […]), yeast extract (1), NaCl (12.5), MgSO4 (7), H2O (2.5), KCl (0.5), CaCl2 (0.1), KH2PO4 (0.5), trace metal solution (5 mL) and vitamin solution (1 mL). The trace element solution may contain (g/L): […] The vitamin solution can be filter-sterilized (e.g., using 0.2 μm pore size filter) containing (mg L-1): thiamine (100), biotin (0.5) and cyanocobalamin (0.5) unless otherwise stated. In some implementations cyanocobalamin might be added to or subtracted from the medium formulation to change or impact propionic acid deposition in OCFA. […] In one implementation, a concentration of the cyanocobalamin and/or cobalt in the culture medium can be below 0.4 μM. […] The flasks can be incubated in the dark in an orbital shaker at 180 rpm, 27° C. In this implementation, sodium propionate is fed batch every day according to respective treatments. […] Analyses. Cell dry weights can be obtained by drying samples that are previously vacuum filtrated (e.g., using 0.2 μm pore size filters). Residual propionate is analyzed directly by high performance liquid chromatography (HPLC). Lipids and total fatty acids are analyzed using a direct extraction, transesterification followed by gas chromatography (GC) and detection by flame ionization (FID). The different fatty acids are identified and quantified using appropriate internal and external standards. Propionic acid deposition rate.

[7] = daily propionate 0+0+1+1+1+1 g/L
[8] = daily propionate 0+0+2+2+2+2 g/L
[9] = 192 h, itaconic acid 0 / propionate 6 g/L

CCC(=O)O [Propionate, propionic acid]
Propionate deposition ([1]; 0 + 3 g/L fed in lipid phase): 58.8 ± 1.9% | Propionate deposition ([1]; 0 + 3 g/L fed in lipid phase, listed as propionate): 58.8% | Propionate deposition ([1]; 3 g/L fed in growth phase): 53.0 ± 1.0% | Propionate deposition ([1]; 3 g/L fed in growth phase, listed as propionate): 53% | Propionate deposition ([2]; cyanocobalamin 0 μM, listed as Propionic acid): 99.9 ± 5.8 % fed | Propionate deposition ([2]; cyanocobalamin 0 μM, listed as propionate): 99.5 % fed | Propionate deposition ([2]; cyanocobalamin 0.00037 μM): 47.0 ± 0.9 % fed | Propionate deposition ([2]; cyanocobalamin 0.37 μM): 10.3 ± 1.0 % fed | Final Propionate ([2]; cyanocobalamin 0 μM): 0.36 g/L | Final Propionate ([2]; cyanocobalamin 0.00037 μM): 0.1 g/L | Final Propionate ([2]; cyanocobalamin 0.37 μM): 0.06 g/L | Cell dry weight ([2]; cyanocobalamin 0 μM): 35.0 ± 1.2 g/L | Cell dry weight ([2]; cyanocobalamin 0.00037 μM): 32.0 ± 0.7 g/L | Cell dry weight ([2]; cyanocobalamin 0.37 μM): 37.0 ± 1.4 g/L | effect on growth (cell dry weight, glucose) [3]: highly growth inhibitory | Consumed propionate ([3]; pH 5 set point): 2.3 ± 0.2 g/L | Propionic Acid Deposited ([3]; pH 5 set point): 30.9 ± 2.0% | Consumed propionate ([3]; pH 6 set point): 2.4 ± 0.1 g/L | Propionic Acid Deposited ([3]; pH 6 set point): 40.3 ± 1.6% | effect on growth (cell dry weight) ([3]; pH 7): not growth inhibitory | Consumed propionate ([3]; pH 7 set point): 1.0 ± 0.1 g/L | Propionic Acid Deposited ([3]; pH 7 set point): 24.7 ± 1.0% | Total Fatty Acid ([3]; propionic acid titrant, pH 5): 59.2 ± 3.1 % CDW | Total Lipids ([3]; propionic acid titrant, pH 5): 75.0 ± 3.0 % CDW | Total Fatty Acid ([3]; propionic acid titrant, pH 6): 63.4 ± 0.3 % CDW | Total Lipids ([3]; propionic acid titrant, pH 6): 79.5 ± 1.5 % CDW | OCFA ([3]; propionic acid titrant, pH 7): 6.3 % TFA | Total Fatty Acid ([3]; propionic acid titrant, pH 7): 70.3 ± 2.8 % CDW | Total Lipids ([3]; propionic acid titrant, pH 7): 87.5 ± 1.5 % CDW | lethal threshold, Propionate Treatment (initial propionate) ([4]; listed as Propionic acid): 20 g/L | lethal threshold, Propionate Treatment (initial propionate) ([4]; listed as propionate): 20 g/L and 30 g/L | lethal threshold, Propionate Treatment ([4]; pH drift approach, acute, metric OUR, pH 5.3): 2.3 ± 0.1 g/L | pH at which oxygen uptake rate dropped (tolerance limit) ([4]; residual propionate 2.3-2.4 g/L, pH ramp 7 to 4): 5.3 | OCFA ([5]; propionate 2 g/L): 30.7 ± 1.8 % TFA | Total Fatty Acids ([5]; propionate 2 g/L): 54.8 ± 5.6 % DW | OCFA ([5]; propionate 3 g/L): 50.8 ± 1.1 % TFA | Total Fatty Acids ([5]; propionate 3 g/L): 56.2 ± 0.6 % DW | OCFA ([5]; propionate 4 g/L): 63.0 ± 2.5 % TFA | Total Fatty Acids ([5]; propionate 4 g/L): 39.2 ± 12.4 % DW | OCFA ([5]; propionate 5 g/L): 64.6 ± 0.3 % TFA | Total Fatty Acids ([5]; propionate 5 g/L): 41.0 ± 3.4 % DW | daily propionic feed not affecting growth [6]: up to 2 g/L d | Total Fatty Acids [6, 7]: 17.3 ± 1.6 % DW | Total Lipids [6, 7]: 19.0 ± 0.0 % DW | Total Fatty Acids [6, 8]: 16.2 ± 0.5 % DW | Total Lipids [6, 8]: 18.3 ± 0.6 % DW | Total Fatty Acids ([6]; daily propionate 0 + 0.6 g/L): 21.3 ± 2.8 % DW | Total Lipids ([6]; daily propionate 0 + 0.6 g/L): 21.7 ± 3.2 % DW | Total Fatty Acids ([6]; daily propionate 0.3 + 0.3 g/L): 21.7 ± 2.5 % DW | Total Lipids ([6]; daily propionate 0.3 + 0.3 g/L): 23.7 ± 3.5 % DW | Cell dry weight [6, 9]: 8.3 ± 1.2 g/L | Consumed propionate [6, 9]: 5.1 ± 1.5 g/L | Odd chain fatty acids [6, 9]: 1.3 ± 0.5 % DW | Propionic acid deposition [6, 9]: 0.6 ± 0.1% | growth on propionate as sole carbon source ([6]; FIG. 25): able to grow | Consumed propionate ([6]; cyanocobalamin 0 μM): 2.6 g/L | Propionate deposition ([6]; cyanocobalamin 0 μM): 0.99% | Consumed propionate ([6]; cyanocobalamin 0.00037 μM): 1.7 g/L | Propionate deposition ([6]; cyanocobalamin 0.00037 μM): 0.83% | Cell dry weight ([6]; propionate 0+0+2+2+2+2 g/L d, cyanocobalamin 0 μM): 6.0 g/L | Cell dry weight ([6]; propionate 0+0+2+2+2+2 g/L d, cyanocobalamin 0.00037 μM): 5.3 g/L | propionic acid deposition rates in OCFAs ([6]; relatively low): < 3 % TFA | OCFAs ([6]; total propionate fed batch 8 g/L): 0.33 g/L

Reference: patent US12285034B2, “Human and non-human animal use of microbial anaplerotic oil” (HELIAE DEVELOPMENT, LLC, priority 2017, dated 2025)
